The source of these data is patent publication US20070054353A1, “Nuclear receptor transcriptional corepressor and uses thereof” (priority 2002, published 2007).

The target in one assay is T1, ERα LBD (Homo sapiens, UniProt P03372).
T1 construct: the ERα LBD fused to GST (GST-ERα-LBD); made in house; LCoR by in vitro translation
T1 sequence (P03372 311-547 limits assumed): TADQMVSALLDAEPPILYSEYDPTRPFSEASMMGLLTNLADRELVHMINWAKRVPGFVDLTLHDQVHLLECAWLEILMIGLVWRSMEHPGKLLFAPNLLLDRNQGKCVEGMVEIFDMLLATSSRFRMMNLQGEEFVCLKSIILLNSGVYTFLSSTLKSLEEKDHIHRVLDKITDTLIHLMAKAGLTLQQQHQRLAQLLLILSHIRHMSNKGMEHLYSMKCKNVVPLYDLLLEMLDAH
The assay is described as follows: GST pull-down of in vitro translated LCoR with GST-ERα LBD. Type of assay: binding. The note with it: ligand added to 10^−6 M.

Assay [1] addresses T2, interaction of LCoR and ERα (Homo sapiens, UniProt P03372).
T2 construct: expressed in transfected cells; host or cells: COS-7
T2 sequence (P03372 1-595): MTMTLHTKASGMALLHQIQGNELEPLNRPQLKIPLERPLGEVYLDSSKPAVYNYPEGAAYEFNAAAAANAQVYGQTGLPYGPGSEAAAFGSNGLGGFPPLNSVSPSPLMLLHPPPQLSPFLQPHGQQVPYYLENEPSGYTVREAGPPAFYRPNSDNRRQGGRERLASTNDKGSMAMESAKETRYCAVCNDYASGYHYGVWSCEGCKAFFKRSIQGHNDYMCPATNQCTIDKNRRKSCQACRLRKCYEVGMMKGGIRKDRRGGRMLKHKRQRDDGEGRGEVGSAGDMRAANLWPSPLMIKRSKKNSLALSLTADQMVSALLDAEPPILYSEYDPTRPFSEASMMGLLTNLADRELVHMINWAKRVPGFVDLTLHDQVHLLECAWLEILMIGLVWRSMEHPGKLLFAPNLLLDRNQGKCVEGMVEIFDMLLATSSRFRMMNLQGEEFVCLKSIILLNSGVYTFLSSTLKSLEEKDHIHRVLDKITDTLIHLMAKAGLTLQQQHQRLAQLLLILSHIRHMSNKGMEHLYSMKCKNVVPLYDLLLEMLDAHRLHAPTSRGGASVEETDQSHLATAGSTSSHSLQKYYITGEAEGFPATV
The assay is described as follows: BRET assay of LCoR-ERα interaction in living COS-7 cells. The format is cell-based. Conditions: 10^−7M ligand, COS-7 cells cotransfected with ERα-EYFP and LCoR-rluc. The method, then:
Readings were started immediately after coelenterazine H addition, and 10 repeated measures were taken.
Interaction of ERα and LCoR in vivo was further tested by bioluminescence resonance energy transfer (BRET) in living COS-7 cells transiently cotransfected with plasmids expressing ERα-EYFP and LCoR-rluc fusion proteins. […] BRET ratios were calculated as described in experimental procedures.

A further assay has as its target T3, CtBP1 (Homo sapiens, UniProt Q13363).
T3 construct: made in house; host or cells: CtBP1 by in vitro translation
In words: GST pull-down of in vitro translated CtBP1 with GST-LCoR. Type of assay: binding. How it is done: GST pull-down assays were performed as described (Eng, F.C.S. et al. (1998) J. Biol. Chem., 273, 28371-7), with the exception that assays performed with in vitro translated ER378 included two more washes made with the GST buffer containing 150 mM NaCl. For immunoprecipitations of tagged proteins, COS-7 cells in 100 mm dishes were transfected with 6 μg of HA-LCOR and/or 6 μg of HA-Flag-HDAC6 or with 6 μg of Flag-LCoR and/or 6 μg of HA-HDAC3 and pSG5 carrier. 48 h after transfection, cells were lysed 30 min at […] in 1 ml of JLB (20 mM Tris-HCl, pH8, 150 mM KCl, 10% glycerol, 0.1% IGEPAL CA-630, and complete protease inhibitor cocktail; Boehringer-Mannheim, Laval, Qc). Cell debris were pelleted by centrifugation (14,000 rpm, 5 min), and proteins immunoprecipitated from 600 μl of supernatant by incubation for 1 h at 4° C. with 4 μg of α-Flag M2 antibody or polyclonal anti-HDAC3, followed by overnight incubation with protein A+G agarose or protein-A agarose beads for anti-Flag, and anti-HDAC3, respectively. Beads were washed (3×) with JLB. Bound immunocomplexes were boiled in Laemmli buffer, separated by 10% SDS/PAGE, and blotted on PVDF membrane with α-Flag M2-peroxidase, α-HDAC3, α-HA-peroxidase (1:500), and detected by enhanced chemiluminescence (NEN Life Science Products, Boston, Mass.). […]

The test system of the next assay is HDAC6. In words: ERα-dependent CAT reporter with LCoR and HDAC6 cotransfection in MCF-7 cells. Type of assay: cell-based, human. The note with it: estradiol 10 nM, TSA 500 nM, trapoxin 50 nM. How it is done:
All cells were cultured under the recommended conditions. For immunocytochemistry, COS-7 cells grown on collagen IV-treated microscope slides in 6-well plates in DMEM, supplemented with 10% FBS were transfected in medium without serum with 12.5 μl of lipofectamine 2000 (Invitrogen, Burlington, Ont.) containing 1 μg each of pSG5/LCoR and HA-Flag-HDAC6/pcDNA3. Medium was replaced 24 h after transfection and cells were prepared for immunocytochemistry after 48 h as described below. For immunoprecipitation of tagged proteins, MCF-7 cells in 100 mm dishes were transfected with 10 μl of lipofectamine containing 10 μg of pSG5 vectors containing Flag-LCoR, Flag-m1, Flag-m2 or Flag-m1+2. For analysis of the effects of HDACs 3 or 6 on LCoR corepression, COS-7 cells (60-70% confluent) grown in DMEM without phenol red, supplemented with 10% FBS on 6-well plates were transfected in medium without serum with lipofectamine 2000 (Invitrogen, Burlington, Ontario, Canada) with 100 ng of ERα expression vectors as indicated, 300 ng of LCoR/pSG5, 300 ng of HA-HDAC3/pCDNA3.1 or […], 250 ng of ERE3-TATA-CAT reporter plasmid, 250 ng of internal control vector pCMV-βgal, and pBluescript carrier DNA to 4 μg. Medium was replaced 18 hr after transfection by a medium containing charcoal-stripped serum and ligand (10 nM) for 30 hr, as indicated. […]

Where a SMILES comes first, the peptide text is derived from it. [ ]: non-standard residue; d: D form. Aoe = N[C@@H](CCCCCC(=O)[C@@H]1CO1)C(=O)O

4-hydroxytamoxifen: the “induction of interaction of LCoR with ERα” value at ERα LBD is recorded as “did not induce interaction”. In assay [1], the “effect on BRET ratio” value is “no significant effect”.

With `NC(=O)C1=CN([C@@H]2O[C@H](COP(=O)(O)OP(=O)(O)OC[C@H]3O[C@@H](n4cnc5c(N)ncnc54)[C@H](O)[C@@H]3O)[C@@H](O)[C@H]2O)C=CC1` [NADH], at CtBP1, the “effect on interaction of CtBP1 with LCoR in vitro” value was “no effect”.

For the compound `O=C1N[C@@H](Cc2ccccc2)C(=O)N2CCC[C@@H]2C(=O)N[C@@H](CCCCCC(=O)[C@@H]2CO2)C(=O)N[C@H]1Cc1ccccc1` [trapoxin] (cyclo(FF[dP][Aoe])), the “effect on HDAC6 repression / enhancement of LCoR corepression of ERα transactivation” value in the assay with HDAC6 is reported as “not”.
